Data taken from patent US20250268921A1, “OPTHALMIC FORMULATIONS AND USES THEREOF” (TelomEYE Pharmaceutical Corporation, priority 2018, published 2025).
Entries after “also recorded” stand apart in the source; their conditions may differ.

Key:
[1] = Rabbit ocular pharmacokinetic model; assay type: in vivo
Description: At the end of the fifth day, blood, tear, cornea, anterior chamber fluid, iris and lens tissues were collected at 30, 60, 120, 240 and 480 minutes following the last administration of 4 μg/50 μl. […] According to the results of the drug analysis at the 30th minute, the highest drug concentrations of 215.56 ng in the corneal tissue, 4 ng in the anterior chamber and 14.12 ng in the iris were detected individually, proving that the drug passes into the corneal tissue after application to the corneal surface and reaches the intraocular tissues.

[2] = test system: telomere length in corneal endothelial cells; test: Telomere length (TAT analysis) in corneal endothelial cells from treated rabbits; assay type: in vivo, rabbit; conditions: 6 months
Description: Samples were received in paraffin.
The sample is filtered to remove collagen residues. Telomere lengths were assessed using Life Length's.
All measurements were performed in quintuplicate.

corneal endothelium = test: Histopathology of corneal layer, treated rabbits; assay type: in vivo, rabbit
Description: Eye tissue was fixed with 4% formaldehyde and embedded in paraffin for the histopathological assessment and processed according to routine light microscope tissue processing methods. 5 μm tissue sections stained with Hematoxylin-Eosin (H&E) were examined and photographed by Leica image analyzing system (Leica, Germany). All specimens were evaluated individually by three histologists who were blinded to the drug type and the treatment times. Histopathology was also performed to evaluate the corneal opacity, neovascularization, inflammatory cell density, vessel size and edema. Moreover, lens structure, scleral, choroidal and macular changes were analyzed by histopathology.

telomerase [3] = target: T1, telomerase (Homo sapiens, UniProt O14746); test: TeloTAGGG Telomerase PCR ELISA assay in HCEC-B4G12; assay type: cell-based; conditions: for % Telomerase Activity ± SD: 30 hours
T1 construct: endogenous in cells; host or cells: HCEC-B4G12 (DSMZ ACC 647)
T1 sequence (O14746 whole entry): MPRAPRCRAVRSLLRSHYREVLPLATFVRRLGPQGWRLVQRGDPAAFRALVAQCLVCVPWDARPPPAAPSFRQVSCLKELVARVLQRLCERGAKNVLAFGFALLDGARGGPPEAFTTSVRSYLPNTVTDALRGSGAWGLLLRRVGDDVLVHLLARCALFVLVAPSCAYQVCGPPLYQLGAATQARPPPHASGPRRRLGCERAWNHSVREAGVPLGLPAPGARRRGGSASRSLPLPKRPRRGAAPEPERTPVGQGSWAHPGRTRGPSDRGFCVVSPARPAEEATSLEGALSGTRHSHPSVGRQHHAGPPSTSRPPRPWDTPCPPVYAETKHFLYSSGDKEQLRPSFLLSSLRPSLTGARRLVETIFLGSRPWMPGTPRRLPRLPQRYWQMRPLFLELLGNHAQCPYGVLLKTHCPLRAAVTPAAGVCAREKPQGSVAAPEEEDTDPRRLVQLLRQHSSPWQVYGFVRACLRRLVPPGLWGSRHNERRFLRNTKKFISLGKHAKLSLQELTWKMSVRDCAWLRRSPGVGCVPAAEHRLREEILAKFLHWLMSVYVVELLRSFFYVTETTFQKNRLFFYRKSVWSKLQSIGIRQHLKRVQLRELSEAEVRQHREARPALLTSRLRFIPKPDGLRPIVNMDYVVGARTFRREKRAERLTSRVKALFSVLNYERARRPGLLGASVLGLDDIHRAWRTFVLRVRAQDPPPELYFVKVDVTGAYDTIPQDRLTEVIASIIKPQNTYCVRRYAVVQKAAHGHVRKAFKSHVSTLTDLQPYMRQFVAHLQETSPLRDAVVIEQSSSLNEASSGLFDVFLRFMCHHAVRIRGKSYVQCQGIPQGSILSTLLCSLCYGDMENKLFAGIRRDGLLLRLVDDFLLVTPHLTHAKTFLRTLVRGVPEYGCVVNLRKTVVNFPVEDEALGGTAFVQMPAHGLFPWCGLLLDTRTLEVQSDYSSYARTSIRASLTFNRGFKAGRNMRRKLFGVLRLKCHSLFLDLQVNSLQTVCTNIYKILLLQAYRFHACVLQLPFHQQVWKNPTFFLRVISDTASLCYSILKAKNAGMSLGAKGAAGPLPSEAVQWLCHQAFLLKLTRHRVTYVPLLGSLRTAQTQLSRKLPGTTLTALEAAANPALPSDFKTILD
Description: TeloTAGGG™ Telomerase PCR ELISA assay was performed as described by manufacturer (Sigma-Aldrich).

[4] = test system: corneal endothelial cells; test: Corneal endothelial cell density (CD) by specular microscopy, rabbits treated 6 months; assay type: in vivo, rabbit
Description: All experiments were designed and carried out in a randomized, double blind manner using placebos. Rabbits were housed for one week prior to the study, fed on standard laboratory food and allowed free access to water in a room at standard temperature and humidity conditions in a 12-h light/12-h dark cycle.
All analyses were carried out using GraphPad Prism 5.0 (GraphPad Software, San Diego, CA, USA). Differences were considered to be significant at a level of P: : : : 0.001.

[5] = test system: human corneal epithelial cells; test: Morphologic evaluation and cell viability, cornea epithelial cells; assay type: cell-based
[6] = test system: telomere length in Corneal Endothelial Cells (CEC); test: Telomere length of corneal endothelial cells, treated versus untreated eyes; assay type: in vivo, rabbit; conditions: six months treatment
Description: IG. 18 illustrates a graph showing percentage of telomere length increases in treated eyes (L) versus control (untreated eyes, R), with increasing dosages of telomerase activator. […] (Cy3=Fluorescence signal of telomere probe, Hoescht=fluorescence of the nuclei, Average R=Average of the control eye).
To determine the mechanism by which treatment with TAED017 prevents Corneal Endothelial Cell (CEC) attrition, telomere lengths from CECs of both treated and untreated eyes were measured and compared.
We then evaluated whether the observed effect of telomere lengthening in CECs also occurred in other ocular tissues. Rabbit eyes were treated for six months with TAED017, (one eye of each rabbit was treated while the other eye remained untreated, as a control group).

[7] = test system: 3D organotypic corneal barrier; test: 3D organotypic corneal barrier passage (LC-MS/MS); assay type: in vitro ADME; conditions: repeated drug administration
cornea endothelial cells = test: Specular microscopy cornea endothelial cell count, TAED017 eye drops 6 months; assay type: in vivo, rabbit; conditions: for cell count, treatment vs control: 2nd and 5th months
From the text: 16-month-old male New Zealand rabbits were used in the study. […] When determining the starting age of rabbits and the duration of eye drop application (6 months), 16 months was chosen to correspond to adult human age, and the study period of 6 months was modeled as the period in which New Zealand rabbits aged 7.91 years (22.75 days for adult New Zealand rabbits, corresponding to 1 year for human age).
In FIGS. 12-15, data are shown as mean±standard error. The statistical evaluations are based on CD (cornea endothelia cell density) values. All CD values were corrected to the baseline measurement (month 0) of the respective rabbit and this correction was made as a percentage [(CD value/CD baseline value)*100]. GraphPad Prism 8.0.2 software was used for all statistical analyses and visualizations. The treatment of the rabbits at the respective dose was compared between the left (TAED017 treatment) and right (non-treated control) eye, both temporally and time and side dependent. For all analyses, “2-way ANOVA test for repeated measures” was used. For data sets with missing data, this analysis was set as “mixed-effect analysis” by the program. “Tukey” and “sidak” tests were used for posthoc analyses. The p values for these tests are adjusted p values.

[8] = test system: telomerase reverse transcriptase (TERT); test: TERT immunohistochemistry of eye tissues; assay type: in vivo, rabbit
From the text: This was characterized by weak telomerase activity in the endothelial layer with an expression of limited number of endothelial cells.

telomerase [9] = target: T1, telomerase; test: Telomerase activity of cornea endothelial and epithelial cells; assay type: cell-based
[10] = test system: human corneal endothelial cells; test: Morphologic evaluation and cell viability, cornea endothelial cells; assay type: cell-based
Description: In the morphologic evaluation, the cells at different time periods (1 h, 4 h, 24 h) were observed following different concentrations of drug administration.

[11] = cornea endothelial and epithelial cells, 48 hours

CC(C)(O)[C@@H]1CC[C@](C)([C@H]2[C@@H](O)C[C@@]3(C)[C@@H]4C[C@H](O)[C@H]5C(C)(C)[C@@H](O)CC[C@@]56C[C@@]46CC[C@]23C)O1 [cycloastragenol, Cycloastragenol]
concentration in eye tissues ([1]; zero hour, after 5 days of eye drops, without last administration): below 1 ng
2am Percentile Length ([2]; GROUP B, 25 ng/ml): 6,968 Base Pairs
Median Length ([2]; GROUP B, 25 ng/ml): 11,431 Base Pairs
Telomeres <3 Kbp ([2]; GROUP B, 25 ng/ml): 3.7%
2am Percentile Length ([2]; GROUP C, 100 ng/ml): 7,374 Base Pairs
Median Length ([2]; GROUP C, 100 ng/ml): 11,543 Base Pairs
Telomeres <3 Kbp ([2]; GROUP C, 100 ng/ml): 3.1%
2am Percentile Length ([2]; GROUP D, 500 ng/ml): 7,113 Base Pairs
Median Length ([2]; GROUP D, 500 ng/ml): 11,552 Base Pairs
Telomeres <3 Kbp ([2]; GROUP D, 500 ng/ml): 3.6%
histopathological finding, corneal endothelium (corneal endothelium; Group B, 25 ng/ml, compared to group A): cell losses were observed in very few areas
histopathological finding, corneal endothelium (corneal endothelium; Group C, 100 ng/ml): configuration and number of cells were found to be close to Group NC
histopathological finding, corneal endothelium (corneal endothelium; Group D, 500 ng/ml, compared to Group B and Group C): more hypertrophic and place cell losses
% Telomerase Activity ± SD (telomerase [3]; 3.8 ng/ML): 108 ± 5.27%
% Telomerase Activity ± SD (telomerase [3]; 7.8 ng/ML): 114.42 ± 2.79%
% Telomerase Activity ± SD (telomerase [3]; 15.6 ng/ML): 148.94 ± 49.54%
% Telomerase Activity ± SD (telomerase [3]; 125 ng/ML): 43.14 ± 0.24%
% Telomerase Activity ± SD (telomerase [3]; 250 ng/ML): 46.28 ± 2.02%
% Telomerase Activity ± SD (telomerase [3]; 500 ng/ML): 54.38 ± 2.78%
% Telomerase Activity ± SD (telomerase [3]; 10000 ng/ML, placebo (1% DMSO) = 100%): 74.0 ± 10.45%
telomerase activity compared with negative control (telomerase [3]; 3.8-62.5 ng/ml): higher telomerase activity than negative control
telomerase activity, times higher than the negative control (telomerase [3]; 62.5-31.25 ng/ml): 7-10 times
telomerase activity compared with negative control (telomerase [3]; 125-1000 ng/ml): lower than negative control
concentration giving the highest activity of telomerase (telomerase [3]; HCEC-B4G12): 62.5 ng/mL
Cell Density (CD) of cornea layer endothelial cells ([4]; Group B, 25 ng/ml, month 0): 2531.00
Cell Density (CD) of cornea layer endothelial cells ([4]; Group B, 25 ng/ml, month 1): 2612.38
change in cell density versus month 0 ([4]; Group B, 25 ng/ml, month 1): 3%
higher cell density than negative control group ([4]; Group B, 25 ng/ml, month 1): about 4%
higher cell density than placebo group ([4]; Group B, 25 ng/ml, month 1): about 4%
Cell Density (CD) of cornea layer endothelial cells ([4]; Group B, 25 ng/ml, month 3): 2604.50
change in cell density versus month 0 ([4]; Group B, 25 ng/ml, month 3): 3%
higher cell density than negative control group ([4]; Group B, 25 ng/ml, month 3): ~18%
higher cell density than placebo group ([4]; Group B, 25 ng/ml, month 3): ~18%
Cell Density (CD) of cornea layer endothelial cells ([4]; Group B, 25 ng/ml, month 6): 2545.88
change in cell density versus month 0 ([4]; Group B, 25 ng/ml, month 6): 4%
higher cell density than negative control group ([4]; Group B, 25 ng/ml, month 6): ~19%
higher cell density than placebo group ([4]; Group B, 25 ng/ml, month 6): ~20%
Cell Density (CD) of cornea layer endothelial cells ([4]; Group C, 100 ng/ml, month 0): 2689.88
Cell Density (CD) of cornea layer endothelial cells ([4]; Group C, 100 ng/ml, month 1): 2741.13
Cell Density (CD) of cornea layer endothelial cells ([4]; Group C, 100 ng/ml, month 3): 2453.88
Cell Density (CD) of cornea layer endothelial cells ([4]; Group C, 100 ng/ml, month 6): 2472.38
Cell Density (CD) of cornea layer endothelial cells ([4]; Group D, 500 ng/ml, month 0): 2875.13
Cell Density (CD) of cornea layer endothelial cells ([4]; Group D, 500 ng/ml, month 1): 2835.38
Cell Density (CD) of cornea layer endothelial cells ([4]; Group D, 500 ng/ml, month 3): 2498.50
Cell Density (CD) of cornea layer endothelial cells ([4]; Group D, 500 ng/ml, month 6): 2488.88

CC(C)(O)[C@@H]1CC[C@](C)([C@H]2[C@@H](O)C[C@@]3(C)[C@@H]4C[C@H](O)[C@H]5C(C)(C)[C@@H](O)CC[C@@]56C[C@@]46CC[C@]23C)O1 [TAED017, Cycloastragenol]
concentration of first degenerative changes ([5]; after 24 hours): 320 µM
IC50 ([5]; cornea epithelial cells, read-out: IC50 dose (cell viability assays)): 740 µM
concentrations without morphological degenerative changes (safe) ([5]; epithelial cells): ≤ 160 μM
CEC telomere length, treated vs untreated eyes [6]: significant increase; also recorded: longer than those from untreated eyes
Tmax, all eye tissues ([1]; 4 μg/50 μl twice a day 5 days, after last administration): 30 min
drug concentration in tears ([1]; 30 and 60 minutes): ≤ 3 ng
highest drug concentration, anterior chamber ([1]; 30th minute, 4 μg/50 μl): 4 ng
highest drug concentration, corneal tissue ([1]; 30th minute, 4 μg/50 μl): 215.56 ng
highest drug concentration, iris ([1]; 30th minute, 4 μg/50 μl): 14.12 ng
highest level of drug absorbed to the corneal surface ([1]; proportion of applied drug): 5.39%
proportion of the drug that passed into the eye, iris tissue ([1]; proportion of applied drug): 0.35%
amount crossing the corneal barrier, highest ([7]; 48th hour): 1.35%
amount crossing the corneal barrier, highest ([7]; 72nd hour): 1.89%
cell count, difference between months in the treated eye (cornea endothelial cells; 4 μg/50 μl): no significant difference between the times
cell count, overall comparison treated left vs untreated right eye (cornea endothelial cells; 4 μg/50 μl twice a day, two way ANOVA): no statistically significant difference
cell count, treatment vs control (cornea endothelial cells; 4 μg/50 μl): no statistically significant difference
cell count, treatment vs control (cornea endothelial cells; 8 μg/50 μl): no difference
cell count, overall comparison treated left vs untreated right eye (cornea endothelial cells; 8 μg/50 μl, mixed-effects analysis): statistically significant difference
cell count, difference between months in the treated eye (cornea endothelial cells; 12 μg/50 μl): statistically significant difference between the 2nd and 6th month
cell count, treatment vs control (cornea endothelial cells; 12 μg/50 μl): no difference
cell count, overall comparison treated left vs untreated right eye (cornea endothelial cells; 12 μg/50 μl, mixed-effects analysis): statistically significant difference
TERT immunoreactivity in cornea and iris, rank among dose groups ([8]; 80 μg/ml): lowest Tert immunoreactivity; also recorded: lowest levels
TERT immunostaining in the ciliary processes of iris tissue ([8]; 80 μg/ml): Prominent and dense tert antigen immunostaining
TERT staining in corneal endothelial cells ([8]; 160 μg and 240 μg/ml): continuous layer staining
TERT immunostaining in the ciliar processes ([8]; 160 μg/ml and 240 μg/ml): diffuse and very intense immunopositivity
TERT immunoreactivity in cornea and iris, rank among dose groups ([8]; 240 μg/ml): highest reactivity; also recorded: highest levels
TERT expression in cornea and iris, treated left eyes vs untreated ([8]; 80-240 μg/ml eye drops): significantly higher expression; also recorded: significantly elevated
TERT activity in the iris and choroidea vs untreated ([8]; treatment groups): significantly higher
concentrations at which telomerase activity reached its highest level (telomerase [9]; [11]): 20 μM, 40 μM and 100 μM
starting concentration of telomerase activity increase (telomerase [9]; [11]): 2 µM
telomerase activity after 100 μM concentration (telomerase [9]; [11]): no higher telomerase activity
TAED017 activity, epithelial versus endothelial cells (telomerase [9]; human corneal epithelial cells vs HCEC B4-G12): higher in corneal epithelial cells
starting concentration of telomerase activity increase (telomerase [9]; printed in brackets after 2 μM): 100 ng/mL
morphologic change ([10]; 40 μM and 80 μM, up to 24 hours): no significant changes
apoptotic cells in 20× microscope field ([10]; 320 μM, 640 μM and 960 μM, after 1 h and 4 h): 1-5
morphologic change ([10]; 320 μM, 640 μM and 960 μM, as early as 5 minutes): cell-cell connections were disrupted and the cells became round
IC50 ([10]; cornea endothelial cells, read-out: IC50 dose (cell viability assays)): 220 µM
doses that appear safe ([10]; corneal endothelial cells, in vitro): ≤ 80 µM
cell damage ([10]; doses above 80 μM, prolonged drug exposure): significant apoptosis and lysis
apoptosis in HCECs ([10]; high concentrations (e.g. 160 μM and 320 μM)): significantly induces apoptosis
